Patent US12691101B2, “Compound and method for preventing or treating of respiratory diseases comprising the same as an active ingredient” (YONSEI UNIVERSITY, UNIVERSITY - INDUSTRY FOUNDATION (UIF), priority 2019, dated 2026)

Experiments:
[1] = target: T1, human wild-type (WT)-pendrin (Homo sapiens, UniProt O43511); test: Pendrin-mediated Cl^−/SCN^− exchange activity in CHO-K1 cells; type: cell-based
T1 construct: expressed in transfected cells
T1 sequence (O43511 1-780): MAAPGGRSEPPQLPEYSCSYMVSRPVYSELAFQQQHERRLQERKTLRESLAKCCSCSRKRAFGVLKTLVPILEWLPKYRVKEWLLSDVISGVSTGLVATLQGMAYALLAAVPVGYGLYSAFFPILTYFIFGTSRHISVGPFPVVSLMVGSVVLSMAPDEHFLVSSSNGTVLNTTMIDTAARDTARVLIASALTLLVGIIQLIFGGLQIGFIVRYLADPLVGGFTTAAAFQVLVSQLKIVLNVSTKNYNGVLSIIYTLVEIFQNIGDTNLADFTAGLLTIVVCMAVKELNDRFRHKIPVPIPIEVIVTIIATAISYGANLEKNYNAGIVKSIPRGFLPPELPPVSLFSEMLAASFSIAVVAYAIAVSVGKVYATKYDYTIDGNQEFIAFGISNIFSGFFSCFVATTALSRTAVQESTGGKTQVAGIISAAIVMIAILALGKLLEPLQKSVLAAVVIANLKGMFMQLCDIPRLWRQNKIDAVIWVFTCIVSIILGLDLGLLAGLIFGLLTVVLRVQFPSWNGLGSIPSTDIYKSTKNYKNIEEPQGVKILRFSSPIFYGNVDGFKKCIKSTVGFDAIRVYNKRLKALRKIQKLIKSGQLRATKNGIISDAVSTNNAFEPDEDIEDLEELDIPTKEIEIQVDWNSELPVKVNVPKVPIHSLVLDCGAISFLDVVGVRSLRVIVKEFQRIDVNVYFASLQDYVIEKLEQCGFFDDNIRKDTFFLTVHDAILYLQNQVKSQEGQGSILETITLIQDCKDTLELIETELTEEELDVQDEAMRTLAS
Method: For measurement of Cl^−/SCN^− exchange activity, YFP fluorescence was measured in pendrin and halide sensor YFP expressing CHO-K1 cells. To measure the Cl^−/SCN^− exchange activity, HEPES buffer solution was changed to NaSCN-substituted HEPES buffer solution (140 mM NaSCN, 5 mM KCl, 1 mM MgCl2, 1 mM CaCl2, 10 mM glucose and 10 mM HEPES (pH 7.4)) for generation of an SCN^− gradient driving SCN^− inflow by pendrin. The YFP fluorescence change by SCN^− inflow was monitored using FLUOstar Omega microplate reader (BMG Labtech) and MARS data analysis software (BMG Labtech).

[2] = target: T2, hERG (Kv11.1) potassium channel (Homo sapiens, UniProt Q12809); test: hERG potassium channel activity, thallium flux in HEK293T cells; type: cell-based
T2 construct: expressed in transfected cells
Method: (A) The inhibition of mouse pendrin (mPDS)-mediated Cl^−/I^− exchange activity by F56 was measured in CHO-K1 cells (mean±S.E., n=5). The indicated concentration of F56 was pretreated for 10 minutes. (B) Summary of dose-response for inhibition of the human pendrin (hPDS)-mediated (closed circle, FIG. (a), C) and mPDS-mediated (open circle) Cl^−/I^− exchange activity. (C-F) Representative traces of intracellular pH in CHO-K1 cells expressing SLC26A3, SLC26A6, SLC26A7 and SLC26A9 were shown. The application of Cl^− free solution induced intracellular alkalization by Cl^−/HCO3^− exchange. The indicated concentration of F56 was pretreated for 10 minutes. (G) the effect of F56 (100 μM) on the CFTR chloride channel activity was measured in FRT cells expressing human CFTR. […] (H) The effect of F56 (100 μM) on the AN01 chloride channel activity was measured in FRT cells expressing human AN01. […] (I) The effect of F56 on the hERG (Kv11.1) potassium channel activity was measured in HEK293T cells expressing human Kv11.1 (mean±S.E., n=4). […] (J) The effect of F56 on the 5-HT2A channel activity was measured in FRT cells expressing human 5-HT2A (mean±S.E., n=4). […]
(A) The effect of F10 (30 μM) on the CFTR channel was measured in FRT cells expressing human CFTR and mutant YFP. […] (B) The effect of F10 (30 μM) on the AN01 channel activity was measured in FRT cells expressing human and mutant YFP. […]

[3] = test system: PDS mRNA; test: Real-time PCR of PDS mRNA in IL-4-treated HNE cells; type: cell-based, human; settings: IL-4-treated HNE cells (F10: 120 hours after treatment)
Method: The total messenger RNA (mRNA) was extracted using TRIzol reagent (Invitrogen, Carlsbad, CA, USA), and was reverse-transcribed using a random hexamer primer, an oligo(dT) primer and SuperScript® III reverse transcriptase (Invitrogen). Quantitative real-time PCR was performed using StepOnePlus Real-Time PCR system (Applied Biosystems, Foster City, CA, USA) and Thunderbird SYBR qPCR mix (Tokyobo, Osaka, Japan). Thermal cycling conditions included the initial stage at 95° C. for 5 minutes, and subsequent 40 cycles at 95° C. for 10 seconds, at 55° C. for 20 seconds and at 72° C. for […].

T2 sequence (Q12809 whole entry): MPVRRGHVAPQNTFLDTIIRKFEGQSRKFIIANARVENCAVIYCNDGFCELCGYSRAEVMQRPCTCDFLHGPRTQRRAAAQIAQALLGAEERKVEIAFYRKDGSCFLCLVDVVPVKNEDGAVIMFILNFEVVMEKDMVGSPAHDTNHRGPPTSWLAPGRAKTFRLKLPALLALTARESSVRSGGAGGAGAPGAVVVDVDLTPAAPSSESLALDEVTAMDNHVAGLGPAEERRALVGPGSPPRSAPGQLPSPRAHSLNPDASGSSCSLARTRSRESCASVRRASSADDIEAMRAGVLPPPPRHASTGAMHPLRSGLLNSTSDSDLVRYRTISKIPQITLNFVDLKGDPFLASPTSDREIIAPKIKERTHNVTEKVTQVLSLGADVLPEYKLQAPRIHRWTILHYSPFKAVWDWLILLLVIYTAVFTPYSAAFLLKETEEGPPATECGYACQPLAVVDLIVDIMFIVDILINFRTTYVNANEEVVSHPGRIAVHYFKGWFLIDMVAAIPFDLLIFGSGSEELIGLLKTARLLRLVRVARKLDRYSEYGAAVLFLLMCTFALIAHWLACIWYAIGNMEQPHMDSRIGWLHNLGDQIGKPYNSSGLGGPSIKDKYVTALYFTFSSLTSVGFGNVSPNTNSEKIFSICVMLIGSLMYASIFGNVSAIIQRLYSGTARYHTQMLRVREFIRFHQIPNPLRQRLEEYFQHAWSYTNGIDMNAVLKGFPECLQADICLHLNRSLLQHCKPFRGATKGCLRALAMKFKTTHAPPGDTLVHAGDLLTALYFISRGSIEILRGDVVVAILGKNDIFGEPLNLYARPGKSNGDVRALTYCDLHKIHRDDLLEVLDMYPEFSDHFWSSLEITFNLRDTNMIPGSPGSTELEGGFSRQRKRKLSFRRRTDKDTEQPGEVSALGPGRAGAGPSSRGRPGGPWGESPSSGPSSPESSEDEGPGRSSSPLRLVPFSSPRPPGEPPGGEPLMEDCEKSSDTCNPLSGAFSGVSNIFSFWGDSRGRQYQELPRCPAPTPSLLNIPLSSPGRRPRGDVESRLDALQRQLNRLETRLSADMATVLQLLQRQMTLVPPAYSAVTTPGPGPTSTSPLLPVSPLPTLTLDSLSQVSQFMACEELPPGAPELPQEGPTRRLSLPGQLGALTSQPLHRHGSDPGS

Row | Compound | inhibition of pendrin Cl^−/SCN^− exchange activity [1] | effect on hERG channel activity ([2]; 30 μM) | PDS mRNA expression level [3] | effect on hERG channel activity ([2]; pretreated 10 minutes)
1 | CC(C)(C)c1ccc(C2=NC(=Cc3ccc[nH]3)C(=O)O2)cc1 [F10, 4-((1H-pyrrol-2-yl)methylene)-2-(4-(tert-butyl)phenyl)oxazol-5 (4H)-one] | strongly inhibit | did not show any effect | did not show any effect | –
2 | CC(C)(C)c1ccc(C2=NC(=Cc3cccs3)C(=O)O2)cc1 [F56, 2-(4-(tert-butyl)phenyl)-4-(thiophen-2-ylmethylene)oxazol-5(4H)-one] | strongly inhibited | – | without changes of the mRNA expression level | not affected
